In patent US20100234372A1, “SUBSTITUTED 2-MERCAPTOQUINOLINE-3-CARBOXAMIDES AS KCNQ2/3 MODULATORS” (GRUNENTHAL GMBH, priority 2009, published 2010):

Tests used:
[1] = target: T1, KCNQ2/3 channels (Homo sapiens, UniProt O43525+O43526); assay: Fluorescence assay using a voltage-sensitive dye (fluorimetry); assay type: cell-based; settings: for EC50: CHO-K1 cells expressing KCNQ2/3 channels; for Emax at 1 µM: 50 μM retigabine = 100%, CHO-K1 cells expressing KCNQ2/3, read-out: Fluorimetry % efficacy at 1 μM (50 μM retigabine = 100%)
T1 construct: expressed in transfected cells; host or cells: CHO-K1 cells
Procedure: […] CHO-K1 cells expressing KCNQ2/3 channels are cultivated adherently at 37° C., 5% CO2 and 95% humidity in cell culture bottles (e.g. 80 cm^2 TC flasks, Nunc) with DMEM-high glucose (Sigma Aldrich, D7777) including 10% FCS (PAN Biotech, e.g. 3302-P270521) or alternatively MEM Alpha Medium (1×, liquid, Invitrogen, #22571), 10% foetal calf serum (FCS) (Invitrogen, #10270-106, heat-inactivated) and the necessary selection antibiotics.
Before being seeded out for the measurements, the cells are washed with a 1×DPBS buffer without Ca^2+/Mg^2+ (e.g. Invitrogen, #14190-094) and detached from the bottom of the culture vessel by means of Accutase (PAA Laboratories, #L11-007) (incubation with Accutase for 15 min at 37° C.). The cell count then present is determined using a CASY™ cell counter (TCC model, Scharfe System) in order subsequently to apply 20,000 to 30,000 cells/well/100 μl of the described nutrient medium, depending on density optimisation for the individual cell line, to 96-well measuring plates of the Corning™ CeIIBIND™ type (flat clear-bottom black polystyrene microplates, #3340). Incubation is then carried out for one hour at room temperature, without gassing or adjusting the humidity, followed by incubation for 24 hours at 37° C., 5% CO2 and 95% humidity.
The voltage-sensitive fluorescent dye from the Membrane Potential Assay Kit (Red™ bulk format part R8123 for FLIPR, MDS Analytical Technologies™) is prepared by dissolving the contents of a vessel of Membrane Potential Assay Kit Red Component A in 200 ml of extracellular buffer (ES buffer, 120 mM NaCl, 1 mM KCl, 10 mM HEPES, 2 mM CaCl2, 2 mM MgCl2, 10 mM glucose; pH 7.4). After removal of the nutrient medium, the cells are washed with 200 μl of ES buffer, then covered with a layer of 100 μl of the dye solution prepared above and incubated for 45 min at room temperature with exclusion of light.
The fluorescence measurements are carried out with a BMG Labtech FLUOstar™, BMG Labtech NOVOstar™ or BMG Labtech POLARstar™ instrument (525 nm excitation, 560 nm emission, bottom-read mode). After incubation of the dye, 50 μl of the substances to be tested in the desired concentrations, or 50 μl of ES buffer for control purposes, are introduced into separate cavities of the measuring plate and incubated for 30 min at room temperature whilst being shielded from light. The fluorescence intensity of the dye is then measured for 5 min and the fluorescence value F1 of each well is thus determined at a given, constant time. 15 μl of a […] KCl solution ([…]) are then added to each well. The change in fluorescence is subsequently measured until all relevant measured values have been obtained (mainly 5-30 min). At a given time after KCl application, a fluorescence value F2 is determined, in this case at the time of the fluorescence peak.
For calculation, the fluorescence intensity F2 is compared with the fluorescence intensity F1, and the agonistic activity of the target compound on the potassium channel is determined therefrom. F2 and F1 are calculated as follows: […]
is determined by adding to the reaction batch only the buffer solution instead of the substance to be tested, determining the value F1K of the fluorescence intensity, adding the potassium ions as described above and measuring a value F2K of the fluorescence intensity. Then F2K and F1K are calculated as follows: […]
Calculations of EC50 values are carried out with the aid of Prism v4.0 software (GraphPad Software™).

[2] = test system: Male Sprague-Dawley rats; assay: Low-intensity tail flick in rats; assay type: in vivo; settings: po, rat
From the text: The antinociceptive activity of the test substance against an acute noxic thermal stimulant was examined in the tail-flick test in rats using the method described by D′Amour and Smith (J. Pharm. Exp. Ther. 72, 74 79 (1941)). Male Sprague-Dawley rats weighing between 200 and 250 g were used (breeder: Janvier, Le Genest St. Isle, France). The animals were placed in special test compartments and the base of the tail was exposed to a focused light beam from an analgesia meter (model 2011, Rhema Labortechnik, Hofheim, Germany). 10 animals were used per group. Before administering a substance according to the invention, the tail-flick latency (time from switching on the light beam to the flick of the tail) was measured twice at an interval of five minutes and the average was defined as the control latency time. The intensity of the light beam was chosen so that the control latency time was 7 to 9 seconds.
The measurement of the tail-flick latency was then repeated 10, 20, 30 and 60 minutes after peroral administration of the substance. The antinociceptive action of the test substance was determined as the increase in the tail-flick latency time using the following formula:
where T0=control latency time before administration of the substance, T1=latency time after administration of the substance, T2=maximum exposure time to the light beam (30 seconds), MPE=maximum possible effect.
Analysis of variance (repeated measures ANOVA) was used to test for statistically significant differences between the substance and vehicle group. The significance level was set at ≦0.05.

[3] = p.o., MPE, read-out: Low-intensity tail flick rat p.o. % effect (dose [mg/kg])

Row | EC50 [1] [nM] | Emax at 1 µM [1] [%] | Compound | inhibition in vivo at 21.5 mg/kg [2, 3] [%] | inhibition in vivo at 10 mg/kg [2, 3] [%] | ED50 [2] [mg/kg] | inhibition in vivo at 4.64 mg/kg ([2]; p.o., dose 4.64 mg/kg, MPE, read-out: Low-intensity tail flick rat p.o. % effect (dose [mg/kg])) [%]
1 | 291 | 223 | CCSc1nc2cc(C(F)(F)F)ccc2cc1C(=O)NCc1cccs1 [compound 14] | 9 |  |  | 
2 | 82 | 141 | CCSc1nc2cc(C(F)(F)F)ccc2c(C)c1C(=O)NCc1cccs1 [compound 30, 2-Ethylsulfanyl-4-methyl-N-(thiophen-2-yl-methyl)-7-(trifluoromethyl)-quinoline-3-carboxamide] |  | 31 |  | 
3 | 85 | 121 | CCSc1nc2cc(C(F)(F)F)ccc2c(C)c1C(=O)NCCC(C)C [compound 37] |  | 0 |  | 
4 | 1690 | 175 | CCSc1nc2cc(C(F)(F)F)ccc2c(C)c1C(=O)NCc1cccnc1 [compound 42] | 51 |  |  | 
5 | 92 | 182 | CCSc1nc2cc(C(F)(F)F)ccc2c(C)c1C(=O)NCc1cccc(F)c1 [compound 76] |  |  | 6.3 | 
6 | 105 | 137 | CCSc1nc2cc(C(F)(F)F)ccc2c(C)c1C(=O)NCc1ccc(F)cc1 [compound 77] |  | 37 |  | 
7 | 64 | 220 | Cc1c(C(=O)NCc2cccs2)c(SC(C)(C)C)nc2cc(C(F)(F)F)ccc12 [compound 89] |  |  | 2.7 | 
8 | 54 | 162 | Cc1c(C(=O)NCc2ccc(F)cc2)c(SC(C)(C)C)nc2cc(C(F)(F)F)ccc12 [compound 94] |  |  |  | 71
9 | 187 | 144 | CCSc1nc2cc(F)c(F)cc2c(C)c1C(=O)NCc1ccc(F)cc1 [compound 109] |  | 7 |  | 
10 | 130 | 211 | CCSc1nc2cc(C(F)(F)F)ccc2c(C)c1C(=O)NCc1ccccc1O [compound 112, 2-Ethylsulfanyl-N-[(2-hydroxyphenyl)-methyl]-4-methyl-7-(trifluoromethyl)-quinoline-3-carboxamide] |  | 17 |  | 
11 |  | 18 | CCSc1nc2cccc(O)c2c(C)c1C(=O)NCc1cccc(F)c1 [compound 127] |  |  |  | 
12 |  | 39 | CCSc1nc2ccc(O)cc2c(C)c1C(=O)NCc1cccc(F)c1 [compound 128] |  |  |  | 
13 |  | 12 | CCSc1nc2cc(O)ccc2c(C)c1C(=O)NCc1cccc(F)c1 [compound 129] |  |  |  | 
14 | 58 | 180 | CCSc1nc2cc(C(F)(F)F)ccc2c(OC)c1C(=O)NCc1cccc(F)c1 [compound 130, 2-Ethylsulfanyl-N-[(3-fluorophenyl)-methyl]-4-methoxy-7-(trifluoromethyl)-quinoline-3-carboxamide] |  |  |  | 
15 | 1820 | 104 | CCSc1nc2cc(C(F)(F)F)ccc2c(N(C)C)c1C(=O)NCc1cccc(F)c1 [compound 131, 4-Dimethylamino-2-ethylsulfanyl-N-[(3-fluorophenyl)-methyl]-7-(trifluoromethyl)-quinoline-3-carboxamide] |  |  |  | 
16 | 51 | 161 | CCSc1nc2cc(OC(F)(F)F)ccc2c(C)c1C(=O)NCc1ccc(F)cc1 [compound 132, 2-Ethylsulfanyl-N-[(4-fluorophenyl)-methyl]-4-methyl-7-(trifluoromethyloxy)-quinoline-3-carboxamide] |  |  |  | 
17 |  | 15 | CCSc1nc2cc(N(C)C)ccc2c(C)c1C(=O)NCc1ccc(F)cc1 [compound 133] |  |  |  | 
18 |  | 21 | CCSc1nc2cc(N3CCOCC3)ccc2c(C)c1C(=O)NCc1cccc(F)c1 [compound 134] |  |  |  | 
19 |  | 6 | CCSc1nc2cc(N3CCOCC3)ccc2c(C)c1C(=O)NCc1ccc(F)cc1 [compound 135] |  |  |  | 
20 | 227 | 164 | CCSc1nc2c(C(F)(F)F)cccc2c(C)c1C(=O)NCc1cccc(F)c1 [compound 136] |  |  |  | 
21 | 225 | 166 | CCSc1nc2c(C(F)(F)F)cccc2c(C)c1C(=O)NCc1ccc(F)cc1 [compound 137] |  |  |  | 
22 | 2240 | 91 | CCSc1nc2c(OC)cccc2c(C)c1C(=O)NCc1cccc(F)c1 [compound 138] |  |  |  | 
23 | 1960 | 91 | CCSc1nc2c(OC)cccc2c(C)c1C(=O)NCc1ccc(F)cc1 [compound 139] |  |  |  | 
24 | 1150 | 101 | CCSc1nc2c(O)cccc2c(C)c1C(=O)NCc1cccc(F)c1 [compound 140] |  |  |  | 
